Experimental findings from US20040209238A1, “Cell division-visualized cell and method of production of the same, method of detection of fluorescence, method of evaluation of influence upon cell division, and method of screenig” (NAGASE & CO., LTD., priority 2002, published 2004) are described below.

The assay relates to human MDA435 cell (transformed with aurora A-GFP, histone H3-CFP, importin α-DsRed). Put plainly: real-time fluorescence observation of cell division in the cell division-visualized cell after addition of an agent. Type of assay: cell-based. The note with it: vinblastine added to the culture fluid. The procedure: As a cell to which the aforementioned plasmid DNA is introduced, human MDA435 cell (Vig et al., 1996; Sugimoto et al., 2000, 2001) was used. The human MDA435 cell was cultured in D-MEM medium containing 10% FCS (manufactured by Nissui Pharmaceutical Co., Ltd.) at 37° C. under 5% carbon dioxide in the air. Cells in the logarithmic growth phase were washed with 4 ml of 1×PBS (−), and the cells were detached by adding 1 ml of trypsin. After terminating the action of trypsin by adding 4 ml of D-MEM medium, the cell suspension was transferred into a centrifuge tube, and a part thereof was removed to subject to the measurement of cell number using a hematometer. The remaining part was centrifuged at 1000 rpm for 10 minutes, and thus recovered cells were washed by suspending in 12 ml of 1×PBS (−). This operation was repeated twice, and the cells were suspended in 1×K-PBS to give the cell density of 1.2×10^7 cells/ml.
The transformed cells described above were cultured in a wet chamber with controlled carbon dioxide concentration and temperature by a thermostat and a control timer of carbon dioxide introduction (Japan, manufactured by Kokensya Engineering), using a 35 mm dish (with a cover glass attached on the bottom: manufactured by ASAHI TECHNO GLASS CORPORATION) on the stage of a inverted fluorescence microscope “Eclipse TE300” (manufactured by Nikon) equipped with a objective lens “PlanApo 60×”. Then, a highly sensitive CCD camera ORCA-ER (manufactured by Hamamatsu Photonics K.K.), and an excitation/absorption filter wheel equipped with a filter set for CFP/YFP/RFP for the observation (No. 86006, manufactured by Chroma Technology Corp.) and aZ-axis motor, and a controller “BioPoint MAC5000” (manufactured by Ludl Electronic Products Ltd.) which is a control equipment of the same were used, with the use of a computer software (LuminaVision version 1.40, manufactured by Mitani Co., Ltd.) for controlling these accessories. […]

“Also recorded” adds a separate entry of the source.

Turning to `CC[C@]1(O)C[C@@H]2CN(CCc3c([nH]c4ccccc34)[C@@](C(=O)OC)(c3cc4c(cc3OC)N(C)[C@H]3[C@@](O)(C(=O)OC)[C@H](OC(C)=O)[C@]5(CC)C=CCN6CC[C@]43[C@@H]65)C2)C1` [vinblastine], the “alignment of the chromosomes on the equatorial plane (transition to the metaphase)” value (cyan fluorescence (histone H3), up to 130 minutes following initiation of the observation, FIG. 2 and FIG. 3) is listed as “not found even after lapse of 130 minutes; also recorded: not observed even after lapse of 130 minutes”. Further, where the note is “green fluorescence (aurora A), FIG. 2”, the “movement of the centrosomes toward the poles and formation of the spindle” value was “inhibition was made on the movement of the centrosomes toward the poles”. Besides, the “progress of cell division, transition from the prophase to the prometaphase” value (observed at intervals of 2 minutes, FIG. 2 and FIG. 3) is listed as “inhibition of the transition from the prophase to the prometaphase”.
